According to PMC3469417, “Loss of Slc4a1b Chloride/Bicarbonate Exchanger Function Protects Mechanosensory Hair Cells from Aminoglycoside Damage in the Zebrafish Mutant persephone” (PLoS Genetics, 2012):

Key:
[1] = molecular target: T1, zebrafish Slc4a1b (zSlc4a1b) (Danio rerio, UniProt D1FTM8); assay: […]- influx in Xenopus oocytes; format: cell-based; details: 200 µM DIDS; inhibitor; bath Cl- 103.6 mM, pH 7.4; disodium salt
T1 construct: cRNA expressed in Xenopus laevis oocytes
T1 sequence (D1FTM8 61-851): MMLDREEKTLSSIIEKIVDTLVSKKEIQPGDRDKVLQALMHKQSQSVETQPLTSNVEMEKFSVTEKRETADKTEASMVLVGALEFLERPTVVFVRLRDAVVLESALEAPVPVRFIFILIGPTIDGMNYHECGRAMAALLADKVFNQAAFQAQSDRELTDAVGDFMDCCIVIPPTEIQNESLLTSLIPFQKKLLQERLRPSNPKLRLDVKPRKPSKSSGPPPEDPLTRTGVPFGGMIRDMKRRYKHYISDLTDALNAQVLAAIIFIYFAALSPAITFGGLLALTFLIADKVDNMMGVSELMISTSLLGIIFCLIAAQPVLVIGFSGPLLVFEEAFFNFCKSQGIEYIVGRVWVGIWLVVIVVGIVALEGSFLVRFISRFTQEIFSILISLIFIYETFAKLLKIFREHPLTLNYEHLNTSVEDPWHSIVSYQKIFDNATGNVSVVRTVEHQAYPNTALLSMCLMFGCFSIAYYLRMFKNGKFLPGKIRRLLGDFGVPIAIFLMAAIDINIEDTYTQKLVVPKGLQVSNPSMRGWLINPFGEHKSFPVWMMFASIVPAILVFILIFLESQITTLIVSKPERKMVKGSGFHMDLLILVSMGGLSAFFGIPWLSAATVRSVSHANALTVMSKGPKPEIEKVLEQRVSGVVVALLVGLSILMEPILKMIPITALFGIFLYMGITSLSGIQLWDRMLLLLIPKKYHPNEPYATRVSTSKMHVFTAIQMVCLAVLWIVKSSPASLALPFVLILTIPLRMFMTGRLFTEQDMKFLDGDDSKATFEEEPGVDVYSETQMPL

human SLC4A1 (hSlc4a1) = molecular target: T2, human SLC4A1 (hSlc4a1) (Homo sapiens, UniProt P02730); assay: […]- influx in Xenopus oocytes; format: cell-based; details: 200 µM DIDS; inhibitor; bath Cl- 103.6 mM, pH 7.4; disodium salt
T2 construct: expressed in Xenopus laevis oocytes
T2 sequence (P02730 1-911): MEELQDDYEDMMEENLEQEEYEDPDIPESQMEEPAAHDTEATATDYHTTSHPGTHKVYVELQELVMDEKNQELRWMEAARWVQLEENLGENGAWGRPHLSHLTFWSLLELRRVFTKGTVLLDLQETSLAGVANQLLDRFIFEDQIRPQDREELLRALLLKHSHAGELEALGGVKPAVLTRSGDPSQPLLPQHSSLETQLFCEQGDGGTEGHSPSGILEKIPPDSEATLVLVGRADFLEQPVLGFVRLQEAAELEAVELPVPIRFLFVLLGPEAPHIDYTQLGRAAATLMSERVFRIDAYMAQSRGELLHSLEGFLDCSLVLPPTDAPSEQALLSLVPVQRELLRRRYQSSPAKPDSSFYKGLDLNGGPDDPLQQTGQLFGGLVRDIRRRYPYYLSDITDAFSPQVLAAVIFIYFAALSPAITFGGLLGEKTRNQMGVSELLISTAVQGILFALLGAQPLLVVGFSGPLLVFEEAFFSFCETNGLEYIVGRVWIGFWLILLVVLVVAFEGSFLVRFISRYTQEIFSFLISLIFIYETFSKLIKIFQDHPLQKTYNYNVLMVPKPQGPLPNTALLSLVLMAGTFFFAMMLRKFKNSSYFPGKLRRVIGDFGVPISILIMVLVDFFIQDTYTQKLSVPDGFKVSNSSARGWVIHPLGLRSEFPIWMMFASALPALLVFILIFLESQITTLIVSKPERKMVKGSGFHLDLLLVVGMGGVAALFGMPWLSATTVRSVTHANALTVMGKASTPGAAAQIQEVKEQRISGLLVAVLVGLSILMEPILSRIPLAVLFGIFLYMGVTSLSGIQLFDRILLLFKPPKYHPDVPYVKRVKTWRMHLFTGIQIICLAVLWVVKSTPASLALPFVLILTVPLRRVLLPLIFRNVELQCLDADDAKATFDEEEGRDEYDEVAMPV

O=S(=O)(O)c1cc(N=C=S)ccc1/C=C/c1ccc(N=C=S)cc1S(=O)(=O)O [DIDS, 4,4′-diisothiocyano-2,2′-stilbenedisulfonic acid]
36Cl- influx in Xenopus oocytes [1]: zebrafish Slc4a1b and by human SLC4A1 was abolished by treatment with the disulfonic stilbene DIDS | 36Cl- influx in Xenopus oocytes (human SLC4A1 (hSlc4a1)): zebrafish Slc4a1b and by human SLC4A1 was abolished by treatment with the disulfonic stilbene DIDS
